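Briefly, cells in 96-well plates were exposed to five compound concentrations for 48 h, and endpoints were estimated by linear interpolation. GI50 is the concentration that inhibits growth by half. TGI denotes the concentration required for complete inhibition of growth.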
Columns and labels:
Assay in all cases: inhibition of tumour cell growth, NCI panel, 48 h
[1] = test system: CCRF-CEM leukemia
[2] = test system: SK-MEL-2 melanoma
[3] = test system: SK-OV-3 ovarian
[4] = test system: UO-31 renal
[5] = test system: KM12 colon
[6] = test system: U251 CNS
[7] = test system: UACC-62 melanoma
[8] = test system: RPMI-8226 leukemia
[9] = test system: HCT-15 colon
[10] = test system: LOX IMVI melanoma

SMILES	TGI [1]	TGI [2]	TGI [3]	TGI [4]	TGI [5]	TGI [6]	TGI [7]	TGI [8]	GI50 [9]	TGI [9]	GI50 [10]	TGI [10]	GI50 [2]	GI50 [3]	GI50 [4]	GI50 [5]	GI50 [6]	GI50 [7]	GI50 [8]	GI50 [1]
CC(=O)N/C(=C\c1ccccc1/C=C(\NC(C)=O)c1nc2cc(C)c(C)cc2[nH]1)c1nc2cc(C)c(C)cc2[nH]1	> 100 µM	53.9 µM	69.1 µM	12.5 µM	> 100 µM	> 100 µM	31.9 µM	64.7 µM												
N#CC(I)CS(=O)(=O)c1ccccc1 (stereo not given)		33.2 µM	> 100 µM	25.8 µM	34.4 µM	> 100 µM	30.3 µM	41.4 µM	5.48 µM	19.4 µM	14.8 µM	28.3 µM	17.6 µM	> 100 µM	12 µM	18.9 µM	> 100 µM	16.6 µM	17.5 µM	
CN(C)CCNC(=O)Cc1ccccc1Nc1c(Cl)cccc1Cl	34 µM		33.4 µM	25.6 µM	35.7 µM	23.6 µM	33.3 µM	38.2 µM		29.6 µM		26.8 µM								
C[N+](C)(C)CC(=O)N/N=C(/Cc1cc(=O)oc2cc(O)ccc12)C(=O)Nc1ccc(Cl)cc1	> 100 µM	> 100 µM	> 100 µM	> 100 µM	> 100 µM		> 100 µM	> 100 µM												
CNc1cc2oc(=O)cc(C)c2cc1C	> 100 µM	> 100 µM				> 100 µM	> 100 µM	> 100 µM		> 100 µM		> 100 µM								
CC1=C(C(=O)Nc2ccccc2)C(c2ccc(Cl)c(Cl)c2)C(C(=O)Nc2ccccc2)=C(C)N1	71.4 µM		31.6 µM	26 µM	25.7 µM	27.6 µM	22.6 µM			22.9 µM		28.5 µM								
CCC(C)(C)n1c(C)nc2c1C(=O)c1ccccc1C2=O	> 100 µM	42.3 µM	> 100 µM	90.7 µM	> 100 µM	> 100 µM	36.1 µM			> 100 µM		47.3 µM								
Cc1nc2sccn2c1-c1nc2sccn2c1/C=C1/C(=O)Nc2ccccc21	> 100 µM	36.8 µM	15.4 µM	89.7 µM	14.6 µM	64.8 µM	> 100 µM		3.09 µM	20.7 µM	3.01 µM	> 100 µM	2.68 µM	2.4 µM	4.93 µM	1.76 µM	4.54 µM	5.15 µM		3.79 µM
CCCN(CCC)c1c([N+](=O)[O-])cc(C(=O)N(CC)CC)cc1[N+](=O)[O-]	60.9 µM	43.5 µM	96 µM	63.1 µM		32.7 µM	69.1 µM	36.3 µM		90.9 µM		30.8 µM								
Oc1oc(C(=C2N=c3ccccc3=N2)c2ccc(Cl)cc2)c(O)c1-c1ccc(Cl)cc1	> 100 µM		11.3 µM	8.08 µM	15.9 µM	22.9 µM	15.2 µM	8.12 µM				10.1 µM								
CNCCCNc1ccnc2cc(Cl)ccc12		37.9 µM	60.8 µM	47.7 µM	67.6 µM	62.4 µM	45.7 µM	55.7 µM	23.3 µM	94.4 µM	16.8 µM	36.6 µM	19.6 µM	21.9 µM	12.8 µM	19.4 µM	22.5 µM	20.1 µM	20 µM	
C=C(C)[C@@H]1CC[C@]2(CN)CC[C@]3(C)[C@H](CC[C@@H]4[C@@]5(C)CCCNC(C)(C)[C@@H]5CC[C@]43C)[C@@H]12	4.92 µM	3.88 µM	3.4 µM	3.05 µM		3.33 µM	3.42 µM		1.19 µM	2.49 µM			2.11 µM	1.82 µM	1.56 µM		1.8 µM	1.87 µM		2.27 µM
Cc1cc(C(=O)CSC(=S)SC(C)(C)C)ccc1Cl		35 µM	94.5 µM	42.6 µM	53.3 µM	28.3 µM	30.1 µM	52.1 µM		57.6 µM		45 µM								
O=C1C=C(c2c(O)ccc3ccccc23)c2cc(O)ccc2C1=O		36.8 µM	38.5 µM	36.5 µM	31.5 µM	28.4 µM	14.2 µM	> 100 µM		33 µM		25.3 µM								
COc1ccc(Cl)cc1NC(=O)c1ccc(NC2=C(Cl)C(=O)N(Cc3ccccc3)C2=O)cc1	94.5 µM			> 100 µM	> 100 µM	> 100 µM	> 100 µM		10.7 µM	> 100 µM	8.5 µM	> 100 µM			> 100 µM	64.4 µM	28.3 µM	33.7 µM		3.99 µM

— PubChem BioAssay (NCI)
